# From patent publication US20050096360A1, “Inhibitors of semicarbazide-sensitive amine oxidase (SSAO) and VAP-1 mediated adhesion useful for treatment of diseases” (priority 2003, published 2005)
# Structures can show the parent of a compound that is named as a salt. Where two headings read alike, the source gives them in different places.
# Legend:
# Assay type in all cases: in vivo
# [1] = system: C57B1/6 female mice; experiment: Acute toxicity studies in mice; conditions: for acute toxicity effects observed: 100 mg/kg i.v.; for dose causing convulsions and labored breathing: i.p. (see Table 2)
# Method: (§1) Intraperitoneal (i.p.) and intravenous (i.v.) LD50 values for the compounds of Examples 8 and 10, as well as mofegiline, the allylamine compound described in Example 18, were determined in mice. Six-week old C57B1/6 female mice were divided in groups of five and administered a single i.p or i.v. injection of compound dissolved in PBS (10-100 mg/kg in 100 ul i.v.; 30-500 mg/kg in 200 ul i.p.). Control groups were administered the same volume of PBS i.p. or i.v. Appearance and overt behavior were noted daily, and body weight was measured before compound administration (Day 1) and on Days, 3, 5 and 7. After seven days, animals were euthanized and their liver, spleen and kidneys weighted.
# (§2) Acute toxicity effects for mofegiline included tremors (40 mg/kg i.v.; 100 mg/kg i.p.) and clonic convulsions and labored breathing (100 mg/kg i.v.; 200 mg/kg i.p.). […] All deaths occurred within 24 hours after drug administration. […] Thus, there is no indication of the cause of death for any of the compounds tested.
# [2] = Acute toxicity studies in mice; conditions: female, C57B1/6, mouse, in vivo, Day 7 values
# Method: as §1, §2
# [3] = system: carrageenan-induced paw edema in Sprague Dawley rats; experiment: Carrageenan-induced rat paw edema; conditions: for paw swelling: 100 mg/kg i.p. 15 minutes prior to carrageenan, 60, 120, 180 min, p<0.05
# Method: Female Sprague Dawley rats were used and compounds of the invention were injected i.p. at 100 mg/kg 15 minutes prior to carrageenan exposure. The control group was injected with an equal volume of vehicle (PBS). Edema in the paws was induced as previously described by injecting 50 μl of a 0.5% solution of carrageenan (Type IV Lambda, Sigma) in saline with a 27-G needle s.c. in the right foot pat. (See Whiteley P. E. and Dalrymple S. A. (1998) Models of inflammation: carrageenan-induced paw edema in the rat, in Current Protocols in Pharmacology. Enna S J, Williams M, Ferkany J W, Kenaki T, Porsolt R E and Sullivan J P, eds., pp 5.4.1-5.4.3, John Wiley & Sons, New York) The size of the tested foot of each animal was measured volumetrically, before induction of edema, and at 60, 120, and 180 min after carrageenan induction.
# Briefly, SSAO inhibitors (30 mg/kg), indomethacin (3 mg/kg) and PBS were administered orally to rats 1 hour after carrageenan injections.
# To investigate further the role of SSAO inhibition in the inflammatory response, studies were carried out to assess the effect of SSAO inhibition on prostaglandin E2 (PGE2) levels. Animals were divided into four therapeutic groups of eight rats each. […] The fourth group received 3 mg/kg of dexamethasone, i.p. 1 hour before paw inflammation. Three hours after carrageenan injection, rats were asphyxiated with CO2 and their hind paws removed. The paws were lacerated with a scalpel, suspended off the bottom of a polypropylene 1.5 ml tube with a micropipette tip and centrifuged to express the inflammatory fluid. The volume collected from each paw was determined and the fluid was analyzed by ELISA for PGE2 production using a commercial kit (R&D Systems, Minneapolis, Minn.) according to the manufacturer's instructions. […] Data were analyzed with GraphPad Prism software (San Diego, Calif.) by Dunnett's test following analysis of variance.
# [4] = system: LPS-induced endotoxemia in C57B1/6J female mice; experiment: LPS-induced endotoxemia and LPS/D-galactosamine shock; conditions: for survival, first 14 hours: LPS 2 mg/kg + D-galactosamine 300 mg/kg i.p., PBS 40%
# Method: Eight female mice per group received i.p. injections of 5 mg/kg LPS. […] Dexamethasone (3 mg/kg) was administered i.p. at the same time. Blood was collected 1, 2, 4, and 8 hours after LPS injection and circulating TNF-α and IL-6 levels were measured by ELISA (R&D Systems). Asterisk * indicates p<0.01.
# Survival data for the first 14 hours is presented.
# In sepsis exposure of endothelial cells of all organs to elevated levels of LPS and inflammatory cytokines leads to upregulation of adhesion molecules and chemokines, which results in an increase in the tethering, rolling and transmigration of leukocytes (Pawlinski R. et al. (2004) Blood 103:1342). LPS-induced endotoxemia is a well-characterized model of systemic inflammation and thus can be used to investigate the putative role of SSAO inhibition in these inflammatory mechanisms. Sepsis was induced in C57B1/6J female mice by i.p. administration of 5 mg/kg of LPS. […] Dexamethasone was administered i.p, at a concentration of 3 mg/kg 1 hr prior to disease induction. Blood was drawn from the retroorbital plexus of anesthetized animals and sera was collected and frozen until time of cytokine measurements. IL-1β, TNF-α, and IL-6 concentrations were determined by ELISA using commercial kits (R&D Systems, Minneapolis, Minn.) according to the manufacturer's instructions. […] Data were analyzed with GraphPad Prism software (San Diego, Calif.) by Dunnett's test following analysis of variance. […] 2 mg/kg LPS together with 300 mg/kg D-galactosamine (GalN, Sigma), both dissolved in PBS, were administered to mice by i.p. injection. At the indicated time points animals from the different therapeutic groups received 200 μl of vehicle (PBS) or 30 mg/kg (2-phenylallyl)hydrazine by oral administration.
# [5] = ip, single i.p. injection, read-out: LD50 intraperitoneal
# [6] = iv, single i.v. injection, read-out: LD50 intravenous
# [7] = 50 mg/kg orally 60 min prior to 5 mg/kg LPS i.p.
Structure (SMILES),acute toxicity effects observed [1],dose causing convulsions and labored breathing [1],"LD50 at 7 days [2, 5] [mg/kg]","LD50 at 7 days [2, 6] [mg/kg]",paw swelling [3],"levels of circulatory IL-6 [4, 7]","levels of circulatory TNF-α [4, 7]","survival, first 14 hours ([4]; 30 mg/kg oral at 0 and 8 hours (2×)) [%]","survival, first 14 hours ([4]; 30 mg/kg oral once (1×)) [%]","PGE2 production in paw exudate ([3]; 50 mg/kg oral 1 hour prior to carrageenan, 3 hours after injection, equivalent to dexamethasone)","paw volume ([3]; 50 mg/kg oral 1 hour prior to carrageenan, FIG. 11A)"
"Cl.NNC/C(=C/F)c1ccccc1 [Example 10, (E)-1-fluoro-2-phenyl-3-hydrazinopropene Hydrochloride]",only tremor,greater than 250 mg/kg,250,> 100,–,–,–,–,–,–,–
"C=C(CNN)c1ccc(F)cc1.Cl [Example 8, N-[2-(4′-fluorophenyl)-allyl]-hydrazine Hydrochloride]",only tremor,greater than 350 mg/kg,350,> 100,clearly and significantly reduced,–,–,–,–,–,–
"C=C(CNN)c1ccccc1 [Example 2, Hydrochloride]",–,–,–,–,clearly and significantly reduced,significantly reduced,significantly reduced,80,60,significantly reduce,reduces
